Source: patent US9006191B2, “Silencing of polo-like kinase expression using interfering RNA” (Protiva Biotherapeutics, Inc., priority 2007, dated 2015)
“Also recorded” adds a separate entry of the source.

What was measured:
[1] = test system: Flt3-ligand derived murine dendritic cells; assay: Cytokine induction in murine Flt3L dendritic cell cultures (ELISA); assay type: cell-based, mouse; conditions: murine Flt3L DC, 5 μg/ml siRNA in SNALP, 24 h
Experimental: Cytokine Induction Assays: Flt3-ligand derived murine dendritic cells (Flt3L DC) were generated as described by Gilliet et al. (J. Exp. Med., 195:953-958) using 100 ng/ml murine Flt3-ligand (PeproTech Inc.; Rocky Hill, N.J.) supplemented media. Femurs and tibiae of female Balb/C mice were isolated and rinsed in sterile PBS. The ends of bones were cut and marrow harvested in complete media (RPMI 1640, 10% heat inactivated FBS, 1% penicillin/streptomycin, 2 mM L-glutamine, 1 mM sodium pyruvate, 25 mM HEPES, 50 μM 2-mercaptoethanol). Bone marrow cells were passed through a 70 μm strainer, centrifuged at 1000 rpm for 7 minutes, and resuspended in complete media supplemented with 100 ng/ml murine Flt3L to 2×10^6 cells/ml. 2 mls of cells were seeded in 6-well plates and 1 ml fresh complete media added every two or three days. On day 9 of culture, non-adherent cells were washed in complete media and plated into 96-well plates at concentrations ranging from 0.5 to 2.5×10^5 cells/well. 2′OMe-modified and unmodified (0/0) PLK-1 SNALP were diluted in PBS and added to Flt3L DC cultures at 5 μg/ml siRNA. Cells were incubated for 24 hours at 37° C. before supernatants were assayed for cytokines by ELISA.
Cytokine ELISA: Interferon-α and IL-6 in culture supernatants were quantified using sandwich ELISA kits according to manufacturer's instructions. These were mouse IFN-α (PBL Biomedical; Piscataway, N.J.) and mouse IL-6 (eBioscience; San Diego, Calif.).
In vitro immune stimulation assays. Mouse Flt3L dendritic cell cultures were generated as described previously (65). In brief, bone marrow from Balb/C mice was harvested in complete media (RPMI 1640, 10% FBS, 1% penicillin/streptomycin, 2 mM L-glutamine, 1 mM sodium pyruvate, 25 mM HEPES, 50 uM 2-mercaptoethanol), passed through a 70 micron strainer and resuspended to 2×10^6 cells/mL in complete media supplemented with 100 ng/mL murine Flt3L (Peprotech). Cells were seeded in 6-well plates and 1 mL fresh Flt3L media added every three days. On day 9 of culture, non-adherent cells were plated into 96 well plates at a concentration 2×10^5 cells/well. Formulated siRNA were diluted in PBS and added to the cells for 24 h before supernatants were assayed for cytokines by ELISA.
Cytokine ELISA. All cytokines were quantified using sandwich ELISA kits.

PLK-1 mRNA = PLK-1 mRNA silencing in cell cultures (QuantiGene branched DNA assay); assay type: cell-based, human; conditions: 0.12-30 nM SNALP, 24 h
Experimental: Target mRNA Quantitation: The QuantiGene® branched DNA assay (Panomics, Inc.; Fremont, Calif.) was used to quantify the reduction of target mRNA in cell cultures treated with SNALP. Cell lysates were prepared according to the manufacturer's instructions and used directly for PLK1 mRNA quantification. Relative PLK-1 mRNA levels are expressed relative to the vehicle (PBS) treated control cells. Specific probe sets used for detection of mRNA were designed to target human PLK-1 mRNA (Genbank Accession No. NM_005030). These probe sets are cross reactive with mouse PLK-1.
PLK-1 SNALP (“2:40” SNALP formulation: 2% PEG-cDMA; 40% DLinDMA; 10% DSPC; and 48% cholesterol) were tested for their ability to silence PLK-1 mRNA in HT29 cells. Cells were plated in duplicates at relatively high concentrations (˜10,000 cells/well). QuantiGene® analysis was performed at 24 hours following transfection to detect the level of mRNA down-regulation. A visual score of the transfected cells was obtained at 48 hours following transfection. Cell viability analysis was performed at 72 hours following transfection.
SNALP containing PLK1424 or PLK773 siRNA (“2:40” SNALP formulation: 2% PEG-cDMA; 40% DLinDMA; 10% DSPC; and 48% cholesterol) were tested for their effects on cell viability and silencing of PLK-1 mRNA in HT29 and LS174T human colon cancer cells. Cells were plated in triplicate at ˜10,000 cells/well. SNALP dosages were as follows: 30 nM; 10 nM; 3.3 nM; 1.1 nM; 0.37 nM; and 0.12 nM. Branched DNA mRNA assays were performed 24 hours following transfection. Cell viability assays were performed at 72 hours following transfection. SNALP containing a non-targeting (GFP) siRNA were used as a negative control. […] The effects on cell viability correlated with silencing of the target PLK-1 mRNA.

HT29 cells = assay: HT29 cell viability assay (CellTiter-Blue); assay type: cell-based, human; conditions: for anti-proliferative activity in screen of PLK-1 siRNA panel: HT29 cells, 1, 5, 25 nM, 72 h; for cell viability / killing of human tumor cells: HT29 cells, SNALP-formulated siRNA at a range of siRNA concentrations, viability at 72 h relative to PBS
Experimental: Various PLK-1 siRNAs were formulated as SNALP (“2:40” SNALP formulation: 2% PEG-cDMA; 40% DLinDMA; 10% DSPC; and 48% cholesterol) and evaluated for their inhibitory effects on cell growth in vitro. HT29 (human colon adenocarcinoma) or Neuro2A (mouse neuroblastoma) cells were treated with various PLK-1 SNALP at a range of siRNA concentrations and their effect on cell viability was evaluated. Viability of cell cultures is expressed as % viability relative to PBS treated controls.
Additional PLK-1 siRNA molecules were formulated as SNALP (“2:40” SNALP formulation: 2% PEG-cDMA; 40% DLinDMA; 10% DSPC; and 48% cholesterol) and evaluated for their inhibitory effects on cell growth in vitro. HT29 or Neuro2A cells were plated in triplicate at 5000 cells/well and 2500 cells/well, respectively. PLK-1 SNALP dosages were as follows: 25 nM; 5 nM; and 1 nM. Cell viability analysis was performed at 72 hours following transfection. SNALP containing a non-targeting (GFP) siRNA were used as a negative control. […]
PLK-1 siRNA molecules containing 2′-O-methyl (2′OMe) nucleotides at selective positions within the double-stranded region of the siRNA duplex were formulated as SNALP (“2:40” SNALP formulation: 2% PEG-cDMA; 40% DLinDMA; 10% DSPC; and 48% cholesterol) and evaluated for their inhibitory effects on cell growth in vitro. HT29 cells were plated in triplicate at 5000 cells/well. Cell viability analysis was performed at 72 hours following transfection with a range of PLK-1 SNALP dosages. SNALP containing a non-targeting (GFP) siRNA were used as a negative control.
Cell viability assays. […] Cell viability analysis was performed at 72 hours following transfection with a range of PLK-1 SNALP dosages.

Substance	cytokine (IL-6, IFN-α) response [1]	PLK-1 mRNA levels (PLK-1 mRNA; HT29 cells)	PLK-1 mRNA levels (PLK-1 mRNA; LS174T cells)	anti-proliferative activity in screen of PLK-1 siRNA panel (HT29 cells)	cell viability / killing of human tumor cells (HT29 cells)
PLK1424-2/A: 2′OMe-modified PLK1424 duplex, SEQ ID NO:214/215 (same SEQ IDs as PLK1424 1/3 of Table 11) (chain 1 AGANCACCCNCCUNAAANAUU; chain 2 UAUUUAANGAGGGUGANCUUU; siRNA; 2'-O-methyl modifications at selected positions, key for n not given here)	completely abrogated	–	–	–	–
PLK773: siRNA to human PLK-1, SEQ ID NO:3/4 (UU overhang form 218/219) (chain 1 AGACCUACCUCCGGAUCAA; chain 2 UUGAUCCGGAGGUAGGUCU; RNA, backbone not given here)	high levels of both IFNα and IL-6	effective at reducing PLK-1 mRNA levels	effective at reducing PLK-1 mRNA levels	most potent mouse, rat, and human cross-reactive siRNA	effective at killing human tumor cells; also recorded: inhibiting cell growth; also recorded: dose-dependent decrease in cell viability
PLK1424: siRNA to human PLK-1, SEQ ID NO:1/2 (UU overhang form 211/212) (chain 1 AGAUCACCCUCCUUAAAUA; chain 2 UAUUUAAGGAGGGUGAUCU; further chemistry not given here)	high levels of both IFNα and IL-6	effective at reducing PLK-1 mRNA levels	effective at reducing PLK-1 mRNA levels	most potent human siRNA	highly potent at killing human tumor cells; also recorded: most potent effects; also recorded: inhibiting cell growth; also recorded: dose-dependent decrease in cell viability
